Data as given in patent EP0215357B1, “Pharmaceutical preparation for the treatment of hypertension” (HOECHST AKTIENGESELLSCHAFT, priority 1985, dated 1987).

Tested on: spontan hypertensive Ratten (Wistar-Kyoto)
Test: Urine excretion over 5 hours in spontaneously hypertensive rats (metabolic cages)
Format: in vivo, Ratte
Details: mean ± spread
Description: 10 spontan hypertensive Ratten (Wistar-Kyoto) wurden instrumentiert und während der Versuche in Stoffwechselkäfigen gehalten. Ramipril (=A) (1 mg/kg) und Piretanid (=B) (1,2 und 16 mg/kg) werden in Tylose oral mit Magensonde verabreicht. Die Kontrollgruppe erhielt nur Tylose. Die ausgeschiedene Urinmenge nach 5 Stunden, die Natriumausscheidung nach 5 Stunden sowie der arterielle Mitteldruck wurden bestimmt. Tabelle 1

SMILES	Urinmenge (1 mg/kg oral in Tylose) [µ1/100g.5h]	Urinmenge (2 mg/kg oral in Tylose) [µ1/100g.5h]	Urinmenge (16 mg/kg oral in Tylose) [µ1/100g.5h]
CCOC(=O)[C@H](CCc1ccccc1)N[C@@H](C)C(=O)N1[C@H](C(=O)O)C[C@@H]2CCC[C@@H]21 [A, Ramipril]	760±185		
NS(=O)(=O)c1cc(C(=O)O)cc(N2CCCC2)c1Oc1ccccc1 [B, Piretanid]	900±180	1470±140	3520±405
